ChEMBL document CHEMBL1201862, “PubChem BioAssay data set” (2004)
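Briefly, cells in 96-well plates were exposed to five compound concentrations for 48 h, and endpoints were estimated by linear interpolation. GI50: concentration for 50% inhibition of growth.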 Active and inactive are the calls of the source. No stated cut-off is given here; in the data, active = GI50 up to about 1.1 µM and inactive = higher.

How the values were obtained:
Experiment in all cases: growth of human tumour cells (NCI), 48 h
SK-MEL-28 = test system: SK-MEL-28
SNB-19 = test system: SNB-19
NCI-H522 = test system: NCI-H522
KM12 = test system: KM12
HOP-62 = test system: HOP-62
HT-29 = test system: HT-29
MOLT-4 = test system: MOLT-4
OVCAR-4 = test system: OVCAR-4
SF-268 = test system: SF-268
SF-539 = test system: SF-539
OVCAR-3 = test system: OVCAR-3
NCI-H23 = test system: NCI-H23
RXF 393 = test system: RXF 393
SR = test system: SR

Measured: GI50

O=C1C2=C(c3ccccc31)C(c1ccc([N+](=O)[O-])cc1)NC(S)=N2 (stereo unspecified)
inactive: SK-MEL-28 59.3 µM | SNB-19 97.3 µM | NCI-H522 30.5 µM | KM12 87.7 µM | HOP-62 > 100 µM | HT-29 > 100 µM | MOLT-4 35.4 µM | OVCAR-4 42.6 µM | SF-268 42.2 µM | SF-539 > 100 µM | OVCAR-3 49.9 µM | NCI-H23 38.5 µM

Nc1ccc2c(c1)C(=O)N(OS(=O)(=O)c1ccccc1)C2=O
inactive: SK-MEL-28 > 100 µM | RXF 393 > 100 µM | SNB-19 > 100 µM | NCI-H522 21.5 µM | KM12 > 100 µM | HOP-62 > 100 µM | HT-29 > 100 µM | OVCAR-4 > 100 µM | SF-268 > 100 µM | SF-539 > 100 µM | OVCAR-3 > 100 µM | NCI-H23 > 100 µM

Nc1ccc(O)c2c1C(=O)c1c(N)ccc(O)c1C2=O
inactive: SK-MEL-28 > 100 µM | RXF 393 > 100 µM | SNB-19 > 100 µM | NCI-H522 > 100 µM | KM12 > 100 µM | HOP-62 > 100 µM | MOLT-4 > 100 µM | OVCAR-4 > 100 µM | SF-268 > 100 µM | SF-539 > 100 µM | OVCAR-3 > 100 µM | NCI-H23 > 100 µM

COc1cc(O)c2c(c1O)C(=O)c1cc(C)ncc1C2=O
inactive: SK-MEL-28 26.5 µM | RXF 393 18.5 µM | SNB-19 21.6 µM | NCI-H522 27 µM | KM12 17.9 µM | HOP-62 28.8 µM | HT-29 15.3 µM | MOLT-4 30.8 µM | OVCAR-4 35.4 µM | SF-268 19.8 µM | SF-539 17.4 µM | OVCAR-3 16.7 µM | NCI-H23 12.4 µM

CC(C)C1CNC2N1C(=O)C2(C)OCc1ccccc1 (stereo unspecified)
inactive: SK-MEL-28 > 100 µM | RXF 393 > 100 µM | SNB-19 > 100 µM | HOP-62 > 100 µM | HT-29 > 100 µM | MOLT-4 80.5 µM | OVCAR-4 > 100 µM | SF-268 > 100 µM | SF-539 > 100 µM | OVCAR-3 > 100 µM | SR 78.5 µM | NCI-H23 > 100 µM

CC1CC(=O)C(CC(=O)O)[C@H]1C(C(=O)C(=O)Nc1cc(Cl)ccc1Cl)[N+](=O)[O-] (stereo partly specified)
inactive: SK-MEL-28 > 100 µM | RXF 393 > 100 µM | SNB-19 > 100 µM | NCI-H522 > 100 µM | KM12 > 100 µM | HOP-62 > 100 µM | HT-29 > 100 µM | SF-268 > 100 µM | SF-539 > 100 µM | OVCAR-3 > 100 µM | SR > 100 µM

O=C(/C=C/c1c(O)ccc2ccccc12)c1cccc(O)c1
inactive: SK-MEL-28 > 100 µM | RXF 393 > 77.4 µM | SNB-19 > 100 µM | NCI-H522 63.4 µM | KM12 > 100 µM | HOP-62 > 100 µM | HT-29 > 100 µM | MOLT-4 47 µM | OVCAR-4 > 70 µM | SF-268 > 100 µM | SF-539 > 100 µM | OVCAR-3 > 76.9 µM | SR 42.7 µM | NCI-H23 > 79.8 µM

COc1ccc2nc(-c3cccs3)cc(C(O)CN3CCSCC3)c2c1 (stereo unspecified)
inactive: SK-MEL-28 24.9 µM | RXF 393 45 µM | SNB-19 29.2 µM | NCI-H522 14.1 µM | KM12 22.3 µM | HOP-62 24.2 µM | HT-29 25 µM | MOLT-4 12.2 µM | OVCAR-4 8.3 µM | SF-268 27 µM | SF-539 22.1 µM | OVCAR-3 36.8 µM | NCI-H23 20.9 µM

Cc1cc(Cl)ccc1NC1=NC(=O)C(CC(=O)Nc2ccc(Cl)cc2Cl)S1 (stereo unspecified)
inactive: SK-MEL-28 > 100 µM | SNB-19 > 100 µM | KM12 > 100 µM | HOP-62 > 100 µM | HT-29 > 100 µM | MOLT-4 > 100 µM | OVCAR-4 > 100 µM | SF-268 > 100 µM | SF-539 > 100 µM | OVCAR-3 > 100 µM | NCI-H23 > 100 µM

C/C=C/C=C/C=C/C=C/C(=O)O
inactive: SK-MEL-28 > 100 µM | RXF 393 > 100 µM | SNB-19 > 100 µM | NCI-H522 > 100 µM | KM12 > 100 µM | HOP-62 > 100 µM | HT-29 > 100 µM | MOLT-4 > 100 µM | OVCAR-4 > 100 µM | SF-268 > 100 µM | SF-539 > 100 µM | OVCAR-3 > 100 µM | SR > 100 µM | NCI-H23 > 100 µM

O=[N+]([O-])c1cc(-c2nnc(S)[nH]2)ccc1O
inactive: SK-MEL-28 > 100 µM | RXF 393 > 100 µM | SNB-19 > 100 µM | KM12 > 100 µM | HOP-62 > 100 µM | HT-29 > 100 µM | OVCAR-4 > 100 µM | SF-268 > 100 µM | SF-539 > 100 µM | NCI-H23 > 100 µM

Cc1ccc(NC(=O)CC/C(CC(=O)c2ccc(F)cc2)=N\NC(=O)C(=O)NN)cc1C
inactive: SK-MEL-28 > 100 µM | RXF 393 > 100 µM | SNB-19 > 100 µM | NCI-H522 > 100 µM | KM12 > 100 µM | HOP-62 > 100 µM | HT-29 > 100 µM | OVCAR-4 > 100 µM | SF-268 > 100 µM | SF-539 > 100 µM | OVCAR-3 > 100 µM | NCI-H23 > 100 µM

COc1cc(NCC(C#N)C#N)ccc1/N=N/c1ccc(Cl)cc1
inactive: SK-MEL-28 27.2 µM | RXF 393 43.6 µM | SNB-19 13.1 µM | NCI-H522 16.6 µM | KM12 14.2 µM | HOP-62 19.9 µM | HT-29 16.4 µM | MOLT-4 15.5 µM | OVCAR-4 37.1 µM | SF-268 38.5 µM | SF-539 25.1 µM | OVCAR-3 20.6 µM | SR 12.8 µM | NCI-H23 23.8 µM

O=C(O)C1OC(Oc2cc(O)c3c(=O)cc(-c4ccc(O)cc4)oc3c2)C(O)C(O)C1O (stereo unspecified)
inactive: SK-MEL-28 > 100 µM | SNB-19 > 100 µM | NCI-H522 > 100 µM | KM12 > 100 µM | HOP-62 > 100 µM | HT-29 > 100 µM | OVCAR-4 > 100 µM | SF-268 > 100 µM | SF-539 > 100 µM | OVCAR-3 > 100 µM | NCI-H23 > 100 µM

O=C1C2=C(c3ccccc31)C(c1ccccc1)NC(S)=N2 (stereo unspecified)
inactive: SK-MEL-28 49.1 µM | SNB-19 38 µM | NCI-H522 33.7 µM | KM12 41.9 µM | HOP-62 > 100 µM | HT-29 57.5 µM | MOLT-4 31.4 µM | OVCAR-4 26.1 µM | SF-268 30.8 µM | SF-539 19.2 µM | OVCAR-3 31.6 µM | NCI-H23 > 100 µM

COC(=O)C1CC(C(=O)OC)c2nc3cc(C)c(C)cc3nc21 (stereo unspecified)
inactive: SK-MEL-28 > 100 µM | SNB-19 > 100 µM | NCI-H522 > 100 µM | KM12 > 100 µM | HOP-62 > 100 µM | HT-29 > 100 µM | MOLT-4 > 100 µM | OVCAR-4 > 100 µM | SF-268 > 100 µM | SF-539 > 100 µM | OVCAR-3 > 100 µM | NCI-H23 > 100 µM

C[N+](C)(C)CC1CCCC/C1=N\O (stereo unspecified)
inactive: SK-MEL-28 > 100 µM | RXF 393 > 100 µM | SNB-19 > 100 µM | NCI-H522 > 100 µM | KM12 > 100 µM | HOP-62 > 100 µM | HT-29 > 100 µM | MOLT-4 > 100 µM | OVCAR-4 > 100 µM | SF-268 > 100 µM | SF-539 > 100 µM | OVCAR-3 > 100 µM | NCI-H23 > 100 µM

O=c1cc(-c2ccccc2)[nH]c2cc(Cl)cc(Cl)c12
inactive: SK-MEL-28 > 100 µM | RXF 393 15.2 µM | NCI-H522 12.1 µM | KM12 5.04 µM | HOP-62 25.8 µM | HT-29 > 100 µM | MOLT-4 > 100 µM | OVCAR-4 20.5 µM | SF-268 28.4 µM | SF-539 29.5 µM | SR 3.16 µM | NCI-H23 57.7 µM

COC(=O)C1=CCON(c2ccccc2)C1c1ccccc1 (stereo unspecified)
inactive: SK-MEL-28 43.5 µM | RXF 393 48 µM | SNB-19 62.8 µM | NCI-H522 20.7 µM | KM12 45 µM | HOP-62 > 100 µM | HT-29 40.4 µM | MOLT-4 27 µM | OVCAR-4 > 10 µM | SF-268 75.3 µM | SF-539 > 100 µM | OVCAR-3 > 100 µM | SR 31.3 µM | NCI-H23 33.2 µM

CN(C)CC(/C(Cc1ccccc1)=N\NC(=S)NN)c1ccccc1 (stereo unspecified)
inactive: SK-MEL-28 > 100 µM | RXF 393 > 100 µM | SNB-19 > 100 µM | NCI-H522 > 100 µM | KM12 > 100 µM | HOP-62 > 100 µM | HT-29 > 100 µM | MOLT-4 > 100 µM | OVCAR-4 > 100 µM | SF-268 > 100 µM | SF-539 > 100 µM | OVCAR-3 > 100 µM | SR > 100 µM | NCI-H23 > 100 µM

O=CC[C@H]1C(=O)C[C@@H]2CCC[C@@H]21
inactive: SK-MEL-28 > 100 µM | RXF 393 29.6 µM | SNB-19 > 100 µM | NCI-H522 > 100 µM | KM12 51.8 µM | HOP-62 > 100 µM | HT-29 94 µM | MOLT-4 43.4 µM | OVCAR-4 > 100 µM | SF-268 89.1 µM | SF-539 50.1 µM | OVCAR-3 47.6 µM | NCI-H23 43.7 µM
